Laboratory results reported in US7547519B2, “Methods of diagnosing multidrug resistant tuberculosis” (The United States of America as represented by the …, priority 2000, dated 2009).
In brackets after ≈: the same amount, converted by molar mass.

Legend:
MSm = assay: microbe, parasite or virus in culture; type: cell-based, Mycobacterium smegmatis
MTb H37Rv = conditions: wild type MTb; cited from earlier work

CCc1cc(C(N)=S=O)ccn1 [ETA S-oxide]
absolute MIC compared with ETA (MSm): lower
effect of EtaR/EtaA overexpression on susceptibility (MSm): EtaR conferred resistance and EtaA conferred hypersensitivity

NNC(=O)c1ccncc1 [INH, isoniazid]
susceptibility to killing (MSm): equally susceptible

CCc1cc(C(N)=S)ccn1 [ETA, ethionamide]
concentration at which growth occurred (MSm): 50 µg/mL
concentration at which transformants were able to grow (MSm): greater than 200 μg/ml
concentration with noticeable growth inhibition (MSm): 2.5 µg/mL
MIC (MSm; Mycolicibacterium smegmatis): > 62.5 µg/mL
MIC (MTb H37Rv): 1.0 µg/mL (≈ 6.02 µM)
